Data on 24 molecules can be found in patent publication US20170050980A1, “OXADIAZINE COMPOUNDS AND METHODS OF USE THEREOF” (FORUM Pharmaceuticals Inc., priority 2015, published 2017).

SMILES strings stand for the structures.

This experiment has as its system Aβ42. In words: In vitro cell screening assay; quantification of Aβ (1-42) peptide by sandwich ELISA. The experiment is classed as cell-based. As to conditions: Human neuroglioma H4 cells stably expressing human wild type APP751; compounds 0.003-10 μM, incubated overnight (16-18 h); Aβ42 in supernatant by sandwich ELISA; normalized to DMSO and DAPT; read-out: Aβ42 H4 Prot Fre IC50. The procedure, abridged: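 Stable H4 neuroglioma line expressing human wild-type APP751; compounds 0.003-10 μM (0.33% DMSO final) added in Pro293 medium 6 h after plating, incubated overnight (16-18 h) at 37 °C. Secreted Aβ42 measured in supernatant by C-terminal-capture sandwich ELISA with 4G8-HRP detection; IC50 by sigmoidal fit, normalized to DMSO and DAPT.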
Regarding `COc1nc(C2=NOC(C)C(c3cn(C)c4ccc(F)c(F)c34)N2)ccc1-n1cnc(C)c1` (single isomer, unassigned; (+)) [Example 52B, (+)-5-(4,5-difluoro-1-methyl-1H-indol-3-yl)-3-(6-methoxy-5-(4-methyl-1H-imidazol-1-yl)pyridin-2-yl)-6-methyl-5,6-dihydro-4H-1,2,4-oxadiazine], the IC50 was 2.9 nM. For `COc1nc(C2=NOC(C)C(c3cn(C)c4ccc(F)c(F)c34)N2)ccc1-n1cnc(C)c1` (single isomer, unassigned; (+)) [Example 52C, (+)-5-(4,5-difluoro-1-methyl-1H-indol-3-yl)-3-(6-methoxy-5-(4-methyl-1H-imidazol-1-yl)pyridin-2-yl)-6-methyl-5,6-dihydro-4H-1,2,4-oxadiazine] the value was 5.8 nM. Then `COc1nc(C2=NOC(C)C(c3cn(C)c4ncc(Cl)c(F)c34)N2)ccc1-n1cnc(C)c1` (single isomer, unassigned; (-)) [Example 62B, (−)-5-(5-chloro-4-fluoro-1-methyl-1H-pyrrolo [2,3-b]pyridin-3-yl)-3-(6-methoxy-5-(4-methyl-1H-imidazol-1-yl)pyridin-2-yl)-6-methyl-5,6-dihydro-4H-1,2,4-oxadiazine], with 484 nM; and `COc1nc(C2=NOC(C)C(c3cc4ccc(Cl)cc4o3)N2)ccc1-n1cnc(C)c1` (single isomer, unassigned) [Example 46D, 5-(6-chlorobenzofuran-2-yl)-3-(6-methoxy-5-(4-methyl-1H-imidazol-1-yl)pyridin-2-yl)-6-methyl-5,6-dihydro-4H-1,2,4-oxadiazine], with 2.8 nM; and `COc1nc(C2=NOC(C)C(c3cn(C)c4ncc(C5CC5)cc34)N2)ccc1-n1cnc(C)c1` (single isomer, unassigned; (+)) [Example 56A, (+)-5-(5-cyclopropyl-1-methyl-1H-pyrrolo [2,3-b]pyridin-3-yl)-3-(6-methoxy-5-(4-methyl-1H-imidazol-1-yl)pyridin-2-yl)-6-methyl-5,6-dihydro-4H-1,2,4-oxadiazine], with 746 nM.

On to `COc1nc(C2=NOC(C)C(c3c4n(c5ccc(Cl)cc35)CCOC4)N2)ccc1-n1cnc(C)c1` (single isomer, unassigned; (+)) [Example 50A, (+)-8-chloro-10-(3-(6-methoxy-5-(4-methyl-1H-imidazol-1-yl)pyridin-2-yl)-6-methyl-5,6-dihydro-4H-1,2,4-oxadiazin-5-yl)-3,4-dihydro-1H-[1,4] oxazino [4,3-a] indole], for which the concentration for half-maximal inhibition (IC50) is 3.2 nM. For `COc1nc(C2=NOCC(C)(c3cn(C)c4ccccc34)N2)ccc1-n1cnc(C)c1` (single isomer, unassigned; (+)) [Example 26A, (+)-3-[3-[6-methoxy-5-(4-methyl-1H-imidazol-1-yl)pyridin-2-yl]-5-methyl-5,6-dihydro-4H-1,2,4-oxadiazin-5-yl]-1-methyl-1H-indole] the value was 48 nM; for `COc1nc(C2=NOC(C)C(c3cn(C)c4ncc(C(F)(F)F)cc34)N2)ccc1-n1cnc(C)c1` (single isomer, unassigned; (-)) [44C or 45C, (−)-3-(6-methoxy-5-(4-methyl-1H-imidazol-1-yl)pyridin-2-yl)-6-methyl-5-(1-methyl-5-(trifluoromethyl)-1H-pyrrolo[2,3-b]pyridin-3-yl)-5,6-dihydro-4H-1,2,4-oxadiazine], about 1380 nM. For `COc1nc(C2=NOC(C)(C)C(c3ccccc3)N2)ccc1-n1cnc(C)c1` (single isomer, unassigned; (+)) [Example 22B, (+)-3-[6-methoxy-5-(4-methyl-1H-imidazol-1-yl)pyridin-2-yl]-6,6-dimethyl-5-phenyl-5,6-dihydro-4H-1,2,4-oxadiazine] the value was 75 nM; for `COc1nc(C2=NOC(C)C(c3ccc(Cl)c(C(F)F)c3)N2)ccc1-n1cnc(C)c1` (single isomer, unassigned; (-)) [Example 55B, (−)-5-(4-chloro-3-(difluoromethyl)phenyl)-3-(6-methoxy-5-(4-methyl-1H-imidazol-1-yl)pyridin-2-yl)-6-methyl-5,6-dihydro-4H-1,2,4-oxadiazine], 352 nM. Consider `COc1nc(C2=NOC(C)C(c3cn(C)c4cc(F)c(Cl)cc34)N2)ccc1-n1cnc(C)c1` (single isomer, unassigned; (+)) [Example 21D, (+)-5-(5-chloro-6-fluoro-1-methyl-1H-indol-3-yl)-3-(6-methoxy-5-(4-methyl-1H-imidazol-1-yl)pyridin-2-yl)-6-methyl-5,6-dihydro-4H-1,2,4-oxadiazine], for which the IC50 was 2 nM. Then `COc1nc(C2=NOC(C)(C)C(c3ccccc3)N2)ccc1-n1cnc(C)c1` (single isomer, unassigned; (-)) [Example 22A, (−)-3-[6-methoxy-5-(4-methyl-1H-imidazol-1-yl)pyridin-2-yl]-6,6-dimethyl-5-phenyl-5,6-dihydro-4H-1,2,4-oxadiazine], with over 3000 nM; and `COc1nc(C2=NOC(C)C(c3ccc(Cl)c(C(F)F)c3)N2)ccc1-n1cnc(C)c1` (single isomer, unassigned; (+)) [Example 55A, (+)-5-(4-chloro-3-(difluoromethyl)phenyl)-3-(6-methoxy-5-(4-methyl-1H-imidazol-1-yl)pyridin-2-yl)-6-methyl-5,6-dihydro-4H-1,2,4-oxadiazine], with 11.6 nM. Then `COc1nc(C2=NOC(C)C(c3ccc(Cl)cc3)N2)ccc1-n1cnc(Cl)c1` (single isomer, unassigned; (-)) [Example 42A, (−)-3-(5-(4-chloro-1H-imidazol-1-yl)-6-methoxypyridin-2-yl)-5-(4-chlorophenyl)-6-methyl-5,6-dihydro-4H-1,2,4-oxadiazine], with over 3000 nM; and `COc1nc(C2=NOC(C)C(c3cn(C)c4ncc(C(F)(F)F)cc34)N2)ccc1-n1cnc(C)c1` (single isomer, unassigned; (+)) [44D or 45D, (+)-3-(6-methoxy-5-(4-methyl-1H-imidazol-1-yl)pyridin-2-yl)-6-methyl-5-(1-methyl-5-(trifluoromethyl)-1H-pyrrolo[2,3-b]pyridin-3-yl)-5,6-dihydro-4H-1,2,4-oxadiazine], with 4.3 nM; and `COc1nc(C2=NOC(C)C(c3cccc(Cl)c3)N2)ccc1-n1cnc(C)n1` (single isomer, unassigned; (-)) [Example 53A, (−)-5-(3-chlorophenyl)-3-(6-methoxy-5-(3-methyl-1H-1,2,4-triazol-1-yl)pyridin-2-yl)-6-methyl-5,6-dihydro-4H-1,2,4-oxadiazine], with over 3000 nM. Then `COc1nc(C2=NOC(C)C(c3cn(C)c4cc(F)c(F)cc34)N2)ccc1-n1cnc(C)c1` (single isomer, unassigned; (-)) [Example 39B, (−)-5-(5,6-difluoro-1-methyl-1H-indol-3-yl)-3-(6-methoxy-5-(4-methyl-1H-imidazol-1-yl)pyridin-2-yl)-6-methyl-5,6-dihydro-4H-1,2,4-oxadiazine], with 70.4 nM; and `COc1nc(C2=NOC(C3CC3)C(c3cc(F)cc(F)c3)N2)ccc1-n1cnc(C)c1` (single isomer, unassigned; (-)) [Example 59B, (−)-6-cyclopropyl-5-(3,5-difluorophenyl)-3-(6-methoxy-5-(4-methyl-1H-imidazol-1-yl)pyridin-2-yl)-5,6-dihydro-4H-1,2,4-oxadiazine], with 854 nM. Consider `COc1nc(C2=NOC(C)(C)C(c3ccc(Cl)cc3)N2)ccc1-n1cnc(C)c1` (single isomer, unassigned; (+)) [Example 23B, (+)-5-(4-chlorophenyl)-3-[6-methoxy-5-(4-methyl-1H-imidazol-1-yl)pyridin-2-yl]-6,6-dimethyl-5,6-dihydro-4H-1,2,4-oxadiazine], for which the IC50 is 23 nM.

Take `COc1nc(C2=NOC(C)C(c3cccc(Cl)c3)N2)ccc1-c1ccnc(C)c1` (single isomer, unassigned; (+)) [Example 49B, (+)-5-(3-chlorophenyl)-3-(2-methoxy-2′-methyl-[3,4′-bipyridin]-6-yl)-6-methyl-5,6-dihydro-4H-1,2,4-oxadiazine]: the IC50 amounted to 15.8 nM. For `COc1nc(C2=NOC(C)C(c3ccc(Cl)c(F)c3)N2)ccc1-n1cnc(C)c1` (stereo not drawn) [40-IB or 40-IIB, (+)-(cis)-5-(4-chloro-3-fluorophenyl)-3-(6-methoxy-5-(4-methyl-1H-imidazol-1-yl)pyridin-2-yl)-6-methyl-5,6-dihydro-4H-1,2,4-oxadiazine] the value was 7.5 nM; for `COc1nc(C2=NOC(C)C(c3cn(C)c4ncc(Cl)c(F)c34)N2)ccc1-n1cnc(C)c1` (single isomer, unassigned; (+)) [Example 62A, (+)-5-(5-chloro-4-fluoro-1-methyl-1H-pyrrolo [2,3-b]pyridin-3-yl)-3-(6-methoxy-5-(4-methyl-1H-imidazol-1-yl)pyridin-2-yl)-6-methyl-5,6-dihydro-4H-1,2,4-oxadiazine], 31.7 nM. For `COc1nc(C2=NOC(C3CC3)C(c3cn(C)c4nccc(F)c34)N2)ccc1-n1cnc(C)c1` (single isomer, unassigned; (+)) [Example 63A, (+)-6-cyclopropyl-5-(4-fluoro-1-methyl-1H-pyrrolo [2,3-b]pyridin-3-yl)-3-(6-methoxy-5-(4-methyl-1H-imidazol-1-yl)pyridin-2-yl)-5,6-dihydro-4H-1,2,4-oxadiazine] the value was 1060 nM. Consider `COc1nc(C2=NOC(C)C(c3cccc(Cl)c3)N2)ccc1-n1cnc(Cl)c1` (single isomer, unassigned; (-)) [Example 47A, (−)-3-(5-(4-chloro-1H-imidazol-1-yl)-6-methoxypyridin-2-yl)-5-(3-chlorophenyl)-6-methyl-5,6-dihydro-4H-1,2,4-oxadiazine], for which the IC50 was over 3000 nM.
